# Data as given in patent US8153589B2, “JNK3 as a target for the treatment of angiogenesis-related diseases” (The University of North Carolina at Chapel Hill, priority 2009, dated 2012).
# Like-named read-outs stand apart in the source and are kept apart here.
# Experiments:
# MKP7 [1] = test: Biotin switch assay, MKP7 S-nitrosylation by NO donors in lysates of transfected HEK293T cells; format: biochemical
# Protocol: (§1) Experiments were performed following the methods previously described by Dr. Stamler's laboratory (39). Cell lysates containing Flag or Myc-tagged MKP7 protein were treated with the indicated concentrations of GSNO followed by the addition of 2 volumes of HEN buffer and freshly prepared S-methyl methanethiosulfonate (10% v/v in N,N-dimethylformamide) and SDS (25% v/v) to final concentrations of 0.1 and 2.5%, respectively. Following frequent vortexing at 50° C. for 1 hour, proteins were precipitated with 3 volumes of acetone at −20° C. for 30 min. The proteins were recovered by centrifugation at 5,000×g for 5 min, followed by gentle rinsing of the pellet with 3×1 ml acetone. The pellets were then resuspended in 240 μl of HEN buffer containing 1% SDS. The resuspended protein was precipitated, rinsed and resuspended once more. For labeling, the blocked samples were mixed with 0.1 volume of biotin-HPDP (2.5 mg/ml in Me2SO) and 0.1 volume of HEN (control) or freshly prepared sodium Ascorbic acid in HEN buffer. Labeling reactions were performed in the dark at room temperature for 1 h unless otherwise indicated. To detect an MKP7 SNO protein from cells or lysates, the labeling reaction was acetone-precipitated as previously described. The washed pellet was resuspended in 250 μl of HEN/10 (HEN diluted 10-fold into H2O) containing 1% SDS, followed by addition of 750 μl of neutralization buffer (25 mM HEPES, 100 mM NaCl, 1 mM ETDA, 1% Triton X-100, pH 7.5). This material was incubated overnight at 4° C. with 40 μl of streptavidin-agarose beads. The beads were washed with 3×1 ml of wash buffer (neutralization buffer+500 mM NaCl) and 2×1 ml of neutralization buffer. The dried beads were eluted with 50 μl of HEN/10+1%-mercaptoethanol. The eluted mixture was then analyzed by SDS-PAGE, followed by immunoblotting with anti-Flag-HRP (1:5000) or antibodies.
# (§2) The preceding experiments indicate that eNOS and its downstream effector JNK3 are required for SDF-1α-induced endothelial cell migration. However, the molecular mechanisms of eNOS-dependent regulation of JNK3 activity are not intuitive. In the course of exploring various potential regulatory mechanisms, we considered the possibility that regulation of JNK3 by eNOS was determined by suppression of dephosphorylation activities. When cells were incubated with sodium orthovanadate, an inhibitor of protein tyrosine and dual-specificity protein phosphatases, JNK phosphorylation increased both under basal conditions and, most prominently, after SDF-1α treatment (FIG. 3A). […] MKP7, a member of the dual-specificity family of protein phosphatases, interacts with the JNK3 scaffold protein β-arrestin2 (25). Located within the N-terminal catalytic domain of MKP7, the Cys^244 residue is highly sensitive to oxidation due to its low pKa and this oxidation is required for decreased MKP7 activity and sustained activation of JNK3 under certain conditions (26). […] MKP7 S-nitrosylation was also detected with another NO donor-DETA NONOate; the addition of DTT blocked its nitrosylation (data not shown). To further explore the nitrosylation of MKP7 by NO donors, SNOs in MKP7 were replaced with biotin (biotin switch), and peptides generated by trypsinization were purified by avidin chromatography and analyzed by MALDI-TOF and ESI-MS/MS. […]
# MKP7 [2] = biological target: T1, MKP7 (Homo sapiens, UniProt Q9BY84, C244S); test: as above; format: biochemical
# T1 construct: the mutants of full-length MKP7, MKP7-C244S and MKP7-C244A; expressed in transfected cells; host or cells: HEK293T
# T1 sequence (Q9BY84 1-317 C244S): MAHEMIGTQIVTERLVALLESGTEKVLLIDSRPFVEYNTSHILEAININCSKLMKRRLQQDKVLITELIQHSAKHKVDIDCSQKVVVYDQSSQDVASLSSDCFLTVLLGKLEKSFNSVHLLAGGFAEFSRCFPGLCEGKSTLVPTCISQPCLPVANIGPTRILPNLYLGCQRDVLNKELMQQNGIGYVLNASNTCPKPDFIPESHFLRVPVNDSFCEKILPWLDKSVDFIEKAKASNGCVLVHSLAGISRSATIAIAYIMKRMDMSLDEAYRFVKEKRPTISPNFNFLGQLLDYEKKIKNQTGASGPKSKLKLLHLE
# Protocol: as §1, §2
# MKP7 [3] = biological target: T1, MKP7; format: biochemical
# Protocol: (§4) Flag-MKP7 protein was prepared from the cells transfected with Flag-MKP7 by immunoprecipitation using Flag beads (Sigma). The precipitate was washed twice with lysis buffer containing high salt (1 M NaCl) followed by 2 washes with the reaction buffer. In vitro phosphatase reactions were carried out at 37° C. for 1 hour in I.V.P.A buffer (20 mM Tris⊕HCl, pH7.0, 0.1 mM MgCl2, 1 mM MnCl2, 1 ┌g/┌1 BSA, 1 mM DTT in reduced samples) with 25 ng active JNK3 purified protein (Upstate). The reaction was stopped by the addition of 2× loading buffer followed by western blotting analysis with phospho-specific JNK and JNK antibodies.
# (§5) To determine whether this S-nitrosylation event affected MKP7 activity, we performed an in vitro phosphatase activity analysis using activated JNK3 protein in a reaction with MKP7-concentrated cell lysates. […] The activities of these mutants were also evaluated using an in vitro phosphatase assay.
# MKP7 [4] = format: biochemical
# Protocol: as §4, §5
# BAECs [5] = test: Scratch wound healing assay; format: cell-based, bovine; details: L-NMMA pretreatment (1 mM or 5 mM, one hour) plus 50 ng/ml SDF-1alpha
# Protocol: For detection of cell migration, a wound healing assay was performed as previously described (40). BAECs were grown on 35 mm wells, the monolayer was scratched with a sterile disposable rubber policeman and the edge labeled with a traced line. After injury, the cells were gently washed with normal media without serum. EC migration from the edge of the injured monolayer was quantified by measuring the area between the wound edges before and the recovered area after injury using light microscopy (Eclipse TS100, 4× objective, Nikon) and the computer program ImageJ.
# To determine whether eNOS activation is required for SDF-1α-mediated endothelial cell migration, we performed scratch-wound healing and Boyden chamber migration assays in the presence of the NOS-specific inhibitor L-NMMA (19). Confluent BAECs were pretreated for one hour with 1 mM or 5 mM L-NMMA or vehicle prior to each assay. […] Similarly, cell migration in Boyden chambers was induced by SDF-1α (from 8±3 to 86±5 cells per field), but this increase in migration was inhibited by the pre-incubation of BAECs with L-NMMA (FIG. 1D). The involvement of eNOS in SDF-1α-induced endothelial cell migration was confirmed by treatment of cells with siRNAs specific for eNOS. […]
# BAECs [6] = test: Boyden chamber migration assay; format: cell-based, bovine
# Protocol: Boyden chamber assays were performed as previously described (40, 41) using a 48-well chamber apparatus (NeuroProbe, Cabin John, Md.). The lower chambers of the apparatus were filled with DMEM with or without SDF-1alpha and then covered with the collagen-coated filter and the upper chambers. Cells pretreated with or without the indicated inhibitors were then added to the upper chambers. After incubating for 6 h at 37° C., cells present on the lower surface were fixed, stained and identified with the 40× objective lens on a Nikon Eclipse TS 100 inverted microscope.
# To determine whether eNOS activation is required for SDF-1α-mediated endothelial cell migration, we performed scratch-wound healing and Boyden chamber migration assays in the presence of the NOS-specific inhibitor L-NMMA (19). Confluent BAECs were pretreated for one hour with 1 mM or 5 mM L-NMMA or vehicle prior to each assay. […] Endothelial cells were transfected with 1 of 3 different bovine eNOS-specific siRNAs, or mixture of all three, and 72 hours later cell lysates were examined by western blot analysis for levels of eNOS protein.
# JNK3 = test: JNK activation (phospho-JNK Western blot) in BAECs; format: cell-based, bovine; details: for SDF-1α-induced JNK phosphorylation in siRNA-transfected cells: BAECs, 50 ng/ml SDF-1alpha for 10 minutes
# Protocol: (§3) Cells were harvested in lysis buffer (1% Triton X-100, 50 mM Tris, pH 7.4, 150 mM NaCl, 1 mM Na3VO4 and 0.1% protease inhibitor tablet; Roche) and clarified by centrifugation at 16,000 g. Equal amounts of proteins were incubated with a specific antibody overnight at 4° C. with gentle rotation. Protein A/G Plus-agarose beads (Santa Cruz Biotechnology, Santa Cruz, Calif.) were used to pull down the antibody complexes. Afterward, beads were washed with lysis buffer, and immune complexes were separated by SDS-PAGE. Total cell lysates were separated by SDS-PAGE and transferred to nitrocellulose membranes.
# Mitogen-activated protein kinases (MAPKs), including ERK1/2 and p38, have been reported to enhance angiogenesis (20, 21). However, the role of JNK in angiogenesis remains controversial, with studies showing both positive and negative outcomes of JNK activation. In order to determine which MAPKs are involved in SDF-1α-induced endothelial cell migration, we screened the activities and expression levels of ERK1/2, p38 and JNK following treatment of BAECs with SDF-1α. […] SDF-1α activated both JNK and ERK1/2 in a dose-dependent manner (FIG. 2B). […] Protein and mRNA for all three JNK isoforms, JNK1, JNK2 and JNK3, can be found in BAECs (FIGS. 5, A&B). In order to determine which JNK protein(s) was activated by SDF-1α in these cells we used a previously described assay (22). Exogenous JNK1, JNK2 and JNK3 proteins containing Flag or GFP-epitopes were transiently expressed in BAECs and their activities were determined via western blotting with a phospho-JNK antibody following SDF-1α treatment. […] To confirm the finding that JNK3 is the only JNK entity activated by SDF-1α, we transfected cells with siRNAs for each of the JNK proteins and then tested the effect of each siRNA for the ability to suppress SDF-1α-induced JNK activation. […] Because JNK3 was the only SDF-1α-activated JNK in endothelial cells in our studies (FIG. 2C & FIG. 5, C), we consider the phospho-JNK signals in western blots with anti-phospho-JNK antibody as the signals for activated JNK3.
# ERK1/2 = ERK1/2 activation, Western blot in BAECs; format: cell-based, bovine; details: L-NMMA, SDF-1α-treated BAECs
# Protocol: as §3
# Mitogen-activated protein kinases (MAPKs), including ERK1/2 and p38, have been reported to enhance angiogenesis (20, 21). However, the role of JNK in angiogenesis remains controversial, with studies showing both positive and negative outcomes of JNK activation. In order to determine which MAPKs are involved in SDF-1α-induced endothelial cell migration, we screened the activities and expression levels of ERK1/2, p38 and JNK following treatment of BAECs with SDF-1α. […] SDF-1α activated both JNK and ERK1/2 in a dose-dependent manner (FIG. 2B). […] Exogenous JNK1, JNK2 and JNK3 proteins containing Flag or GFP-epitopes were transiently expressed in BAECs and their activities were determined via western blotting with a phospho-JNK antibody following SDF-1α treatment. […]
# BAECs [7] = test: In vitro Matrigel angiogenesis (tube formation) assay; format: cell-based, bovine; details: siRNA-expressing cells
# Protocol: Endothelial cell tube formation was analyzed with the Matrigel-based tube formation assay (40, 41). Chilled 24-well plates were coated with growth factor-reduced Matrigel (Becton Dickinson, San Jose, Calif.) that was polymerized at 37° C. for 30 min. BAECs were transfected with siRNA constructs with the Amaxa Nucleofector electroporation reagent. Three days later, cells were trypsinized, and plated at equal numbers into each Matrigel-coated well. After 18 hours of incubation in the absence or presence of SDF-1alpha, the formation of tubes was photographed (Eclipse, 10× objective, TS100Nikon). Images were quantified with ImageJ.
# Endothelial cell migration is a critical step for tube formation during angiogenesis. To test the importance of JNK3 in highly ordered cell assembly processes, we examined the effect of JNK knockdown with siRNAs on the formation of capillary-like tubes in Matrigel. BAECs were transfected with JNK1 siRNA, JNK2 siRNA, JNK3 siRNA or control siRNA. After 72 hours, cells were plated on Matrigel in medium containing 50 ng/ml SDF-1α.
# [8] = Myc-MKP7, GSNO 500 μM, 10 minutes
compound,measurement,setting,value
NCCN(CCN)/[N+]([O-])=N/O [DETA NONOate],S-nitrosylation of MKP7,MKP7 [1]; [8],detected
O[C@@H](CS)[C@@H](O)CS [DTT],S-nitrosylation of MKP7,MKP7 [1]; [8],blocked
"N[C@@H](CCC(=O)N[C@@H](CSN=O)C(=O)NCC(=O)O)C(=O)O [GSNO, nitrosoglutathione]",nitrosylation of MKP7-ΔC (C244S) compared to MKP7-ΔC,MKP7 [2],markedly attenuated
same,S-nitrosylation of MKP7,MKP7 [1],S-nitrosylated
same,nitrosylation of MKP7-WT and MKP7-ΔC,MKP7 [1],strongly nitrosylated
same,phosphatase activity of MKP7-ΔC (C244S),MKP7 [3],essentially unchanged
same,MKP7 phosphatase activity,MKP7 [4],markedly inhibited
same,phosphatase activity of MKP7-WT and MKP7-ΔC,MKP7 [4],decreased dramatically
"CNC(=N)NCCC[C@H](N)C(=O)O [L-NMMA, reference compound]",BAEC migration towards the wounded area,BAECs [5],17.7±2.4%
same,SDF-1α-induced increase in migration in Boyden chambers,"BAECs [6]; pre-incubation with L-NMMA, 50 ng/ml SDF-1alpha",inhibited
same,JNK3 activation induced by SDF-1α,"JNK3; 0.5-5 mM L-NMMA, 50 ng/ml SDF-1alpha for 5 minutes",specifically inhibited
same,ERK activation,ERK1/2,not affected
Oc1c2ccccc2c2c3c(cccc13)N=N2 [SP600125],SDF-1α-mediated endothelial cell migration,"BAECs [6]; 10 μM SP600125, 50 ng/ml SDF-1alpha",27±3 cells
same,SDF-1α-mediated endothelial cell migration,"BAECs [6]; 50 μM SP600125, 50 ng/ml SDF-1alpha",20±2 cells
N#CC(=C(/N)Sc1ccccc1N)/C(C#N)=C(\N)Sc1ccccc1N [U0126],endothelial cell migration induced by SDF-1α,BAECs [6]; 20 μM U0126 (data not shown),decreased
"[Na+].[Na+].[Na+].[O]=[V]([O-])([O-])[O-] [sodium orthovanadate, reference compound]",JNK phosphorylation,"JNK3; Na3VO4 10, 100, 500 μM, basal and after 50 ng/ml SDF-1α",increased
"JNK1 siRNA: AUAACAAAUCCCUUGCCUGACUGGC (SEQ ID NO:4) (listed as RNA, chemistry not given here)",SDF-1α-induced JNK phosphorylation in siRNA-transfected cells,JNK3,significantly enhanced
same,tube length,BAECs [7]; with 50 ng/ml SDF-1α,438±108 μm
same,tube length,BAECs [7]; without SDF-1α,88±23 μm
"JNK2 siRNA: AGUUGAGUCU GCCACUUGUACACUG (SEQ ID NO:5) (AGUUGAGUCUGCCACUUGUACACUG; listed as RNA, chemistry not given here)",SDF-1α-induced JNK phosphorylation in siRNA-transfected cells,JNK3,significantly enhanced
same,tube length,BAECs [7]; with 50 ng/ml SDF-1α,504±93 μm
same,tube length,BAECs [7]; without SDF-1α,121±61 μm
